Results as given in patent publication US11186566B2, “Modulator of cystic fibrosis transmembrane conductance regulator, pharmaceutical compositions, methods of treatment, and process for making the modulator” (Vertex Pharmaceuticals Incorporated, priority 2016, dated 2021).
pEC50: −log10 of the molar value. Where two headings read alike, the source gives them in different places.

What was measured:
Rat IV and PO PK studies = format: in vivo, male Sprague-Dawley rats; conditions: male, Sprague-Dawley, plasma; for bioavailability / AUC: oral; for bioavailability: read-out: Rat po % F; for clearance: intravenous, 3.0 mg/kg, read-out: Rat iv CL
Experimental: 5C. Experimental Protocol for Rat IV and PO PK Studies
[…] […] Analyses of plasma and dose preparations were performed using LC/MS/MS.
Plasma concentration-time profiles of the tested compound in Sprague-Dawley rats at scheduled (nominal) sampling times were analyzed by noncompartmental pharmacokinetic methods using PK function within Watson LIMS software, Version 7.4.2 (Thermo Scientific Inc, Waltham, Mass.). AUC values were calculated using the linear trapezoidal rule.

human PXR = human PXR (Homo sapiens (Human), UniProt O75469); experiment: PXR assay (PXR mediated CYP3A4 induction, DPX-2 cell line); format: cell-based; conditions: DPX-2 cells, 48 hours, 0.1 to 60 μM
human PXR, sequence (O75469 whole entry): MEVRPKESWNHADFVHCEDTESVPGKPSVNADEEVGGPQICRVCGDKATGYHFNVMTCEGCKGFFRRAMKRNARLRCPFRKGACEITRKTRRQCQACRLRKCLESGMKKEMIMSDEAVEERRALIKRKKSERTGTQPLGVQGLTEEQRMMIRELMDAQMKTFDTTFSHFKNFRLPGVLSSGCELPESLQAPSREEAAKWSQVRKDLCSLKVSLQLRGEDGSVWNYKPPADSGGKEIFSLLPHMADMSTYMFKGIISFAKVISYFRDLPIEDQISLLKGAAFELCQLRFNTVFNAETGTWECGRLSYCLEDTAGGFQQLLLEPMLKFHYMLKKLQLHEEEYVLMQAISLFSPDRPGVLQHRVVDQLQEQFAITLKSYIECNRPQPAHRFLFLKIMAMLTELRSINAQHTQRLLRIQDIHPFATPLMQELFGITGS
Experimental: 5D. Experimental Protocol for PXR Assay
The propensity for PXR mediated CYP3A4 induction is assessed using the DPX-2 cell line in vitro. This cell line, which has been licensed from Puracyp Inc. was derived from HepG2 cells and has been stably transfected with genes encoding human PXR as well as a modified luciferase reporter linked to the CYP3A4 promoter region and related distal and proximal enhancers.
The assay is run in 384 well format and each test article is administered in 11 doses ranging from 0.1 to 60 μM. On day 1, DPX-2 cells which have previously been expanded in-house and cryopreserved are thawed and seeded in tissue culture plates. The following day, media is changed and cells are cultured in media containing test article, vehicle control or the positive control compound, the clinically validated CYP3A4 inducer rifampicin. Cells are cultured in the presence of test article for 48 hours and then cell viability is assessed using fluorescence based assay (Cell Titer-Fluor, Promega) with an EnVision Plate Reader (PerkinElmer). Subsequently, CYP3A4 transactivation, which is proportional to luciferase activity, is measured by reading luminescense using the Promega One-Glo reagent system using the same plate reader.
Data processing within the Genedata software package allows reporting of max fold induction compared to vehicle control, an EC50 value for CYP3A4 inducers and an 11 point-dose response curve.

F508del-CFTR = F508del-CFTR (Homo sapiens (Human), UniProt P13569, DEL508-508); experiment: Membrane potential optical (fluorescent voltage sensing dye, FLIPR III) HTS assay for F508del-CFTR modulators; format: cell-based
F508del-CFTR, sequence (P13569 other isoform, or with tags, fused parts or gaps del F508-F508): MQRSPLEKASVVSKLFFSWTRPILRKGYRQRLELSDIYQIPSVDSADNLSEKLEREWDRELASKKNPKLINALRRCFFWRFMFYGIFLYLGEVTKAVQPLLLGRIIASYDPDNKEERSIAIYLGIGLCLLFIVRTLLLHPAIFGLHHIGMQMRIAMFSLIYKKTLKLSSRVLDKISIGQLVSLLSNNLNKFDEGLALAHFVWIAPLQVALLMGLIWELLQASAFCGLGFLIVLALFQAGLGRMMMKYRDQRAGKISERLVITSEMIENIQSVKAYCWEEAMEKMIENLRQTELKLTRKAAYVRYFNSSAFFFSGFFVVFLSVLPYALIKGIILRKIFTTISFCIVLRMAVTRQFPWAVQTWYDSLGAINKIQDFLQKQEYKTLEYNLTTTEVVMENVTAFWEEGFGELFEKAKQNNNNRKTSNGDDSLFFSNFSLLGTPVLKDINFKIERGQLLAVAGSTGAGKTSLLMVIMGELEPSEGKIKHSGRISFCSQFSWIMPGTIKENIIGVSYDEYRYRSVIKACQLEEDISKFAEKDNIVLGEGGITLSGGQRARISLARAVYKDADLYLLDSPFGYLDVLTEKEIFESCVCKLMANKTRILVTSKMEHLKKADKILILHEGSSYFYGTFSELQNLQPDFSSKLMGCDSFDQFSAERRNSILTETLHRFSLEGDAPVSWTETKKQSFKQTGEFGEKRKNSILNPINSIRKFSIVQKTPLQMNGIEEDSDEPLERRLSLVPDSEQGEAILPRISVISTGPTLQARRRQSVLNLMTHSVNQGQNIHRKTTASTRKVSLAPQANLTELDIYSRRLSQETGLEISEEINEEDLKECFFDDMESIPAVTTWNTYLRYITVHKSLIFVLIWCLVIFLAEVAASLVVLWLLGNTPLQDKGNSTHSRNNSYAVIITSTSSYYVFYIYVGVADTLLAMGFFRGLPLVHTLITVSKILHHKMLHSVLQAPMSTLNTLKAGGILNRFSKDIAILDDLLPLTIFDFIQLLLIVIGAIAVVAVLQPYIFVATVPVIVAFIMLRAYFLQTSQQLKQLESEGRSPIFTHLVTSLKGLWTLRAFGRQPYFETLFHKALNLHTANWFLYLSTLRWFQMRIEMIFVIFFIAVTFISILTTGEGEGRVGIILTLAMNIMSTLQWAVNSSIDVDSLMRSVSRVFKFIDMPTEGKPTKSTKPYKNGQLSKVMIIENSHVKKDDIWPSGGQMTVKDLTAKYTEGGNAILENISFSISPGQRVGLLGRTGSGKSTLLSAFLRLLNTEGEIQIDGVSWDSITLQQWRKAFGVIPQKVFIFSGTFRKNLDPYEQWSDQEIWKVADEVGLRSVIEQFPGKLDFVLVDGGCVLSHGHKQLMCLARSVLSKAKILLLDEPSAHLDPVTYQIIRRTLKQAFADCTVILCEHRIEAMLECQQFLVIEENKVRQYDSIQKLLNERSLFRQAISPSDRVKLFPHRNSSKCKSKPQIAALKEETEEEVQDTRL
Description: Membrane Potential Optical Methods for Assaying Properties of F508del-CFTR Modulators
The assay utilizes fluorescent voltage sensing dyes to measure changes in membrane potential using a fluorescent plate reader (e.g., FLIPR III, Molecular Devices, Inc.) as a readout for increase in functional F508del in NIH 3T3 cells.
5A-A1. Identification of F508Del-CFTR Modulators
To identify modulators of F508del, a fluorescence based HTS assay format was developed. This HTS assay utilizes fluorescent voltage sensing dyes to measure changes in membrane potential on the FLIPR III as a measurement for increase in gating (conductance) of F508del NIH 3T3 cells.
(in mM) NaCl 160, KCl 4.5, CaCl2 2, MgCl2 1, HEPES 10, pH 7.4 with NaOH, Glucose 10.
Chloride salts in Bath Solution #1 (above) are substituted with gluconate salts.
NIH3T3 mouse fibroblasts stably expressing F508del are used for optical measurements of membrane potential. The cells are maintained at 37° C. in 5% CO2 and 90% humidity in Dulbecco's modified Eagle's medium supplemented with 2 mM glutamine, 10% fetal bovine serum, 1×NEAA, β-ME, 1×pen/strep, and 25 mM HEPES in 175 cm^2 culture flasks. For all optical assays, the cells were seeded at 12,000 cells/well in 384-well matrigel-coated plates and cultured for 18-24 hrs at 37° C. for the potentiator assay. For the correction assays, the cells are cultured at 37° C. with and without compounds for 18-24 hours.

[1] = F508del NIH 3T3 cells, assay 5A-A1, read-out: CFTRdF508 EC50
[2] = Table 9, read-out: CFTR dF508 EC50

| bioavailability (Rat IV and PO PK studies; 3 mg/kg) [%] | clearance (Rat IV and PO PK studies) [mL/min/kg] | AUC (Rat IV and PO PK studies; 3 mg/kg) [ng·h/mL] | PXR Max Induction (% of rifampicin) (human PXR) | pEC50 (F508del-CFTR; [1]) | pEC50 (F508del-CFTR; [2]) | AUC (Rat IV and PO PK studies; 10 mg/kg for Compound A, read-out: Rat po AUC) [ng·h/mL] | pEC50 (F508del-CFTR; Table 7, Compound 1 and metabolites, read-out: CFTRdF508 EC50) | SMILES |
| --- | --- | --- | --- | --- | --- | --- | --- | --- |
| 69 | 2.7 | 12500 | 22 % of rifampicin | > 7.00 | 7.52 | – | – | Cc1ccccc1S(=O)(=O)NC(=O)c1ccc(-n2ccc(OCC3(C(F)(F)F)CC3)n2)nc1N1C[C@@H](C)CC1(C)C [Compound 23, N-(o-Tolylsulfonyl)-6-[3-[[1-(trifluoromethyl)cyclopropyl]methoxy]pyrazol-1-yl]-2-[(4S)-2,2,4-trimethylpyrrolidin-1-yl]pyridine-3-carboxamide] |
| – | – | – | 4 % of rifampicin | > 7.00 | 7.30 | – | – | Cc1ccccc1S(=O)(=O)NC(=O)c1ccc(-n2ccc(OCC3(C(F)(F)F)CCC3)n2)nc1N1C[C@@H](C)CC1(C)C [Comp. 58, N-(o-Tolylsulfonyl)-6-[3-[[1-(trifluoromethyl)cyclobutyl]methoxy]pyrazol-1-yl]-2-[(4S)-2,2,4-trimethylpyrrolidin-1-yl]pyridine-3-carboxamide] |
| – | – | – | 13 % of rifampicin | > 7.00 | 7.15 | – | – | C[C@@H]1CN(c2nc(-n3ccc(O[C@H]4C[C@H]5CC[C@@H]4C5)n3)ccc2C(=O)NS(=O)(=O)c2ccccc2)C(C)(C)C1 [Comp. 39, N-(benzenesulfonyl)-6-[3-[(1R,2S,4S)-norbornan-2-yl]oxypyrazol-1-yl]-2-[(4S)-2,2,4-trimethylpyrrolidin-1-yl]pyridine-3-carboxamide] |
| 81 | 5 | 8500 | 18 % of rifampicin | 6.00 to 7.00 | 6.21 | – | – | C[C@@H]1CN(c2cc(-n3ccc(OCCC4(C(F)(F)F)CC4)n3)ncc2C(=O)NS(=O)(=O)c2ccccc2)C(C)(C)C1 [Comp. 44, (S)—N-(phenylsulfonyl)-6-(3-(2-(1-(trifluoromethyl)cyclopropyl)ethoxy)-1H-pyrazol-1-yl)-4-(2,2,4-trimethylpyrrolidin-1-yl)nicotinamide] |
| – | 29.2 | – | 9 % of rifampicin | – | – | – | – | C[C@@H]1CN(c2nc(-n3ccc(OCC(C)(C)C)n3)ccc2C(=O)NS(=O)(=O)c2ccccc2)C(C)(C)C1 [Comp. B, reference compound] |
| 79 | 3.4 | 9000 | 4 % of rifampicin | > 7.00 | 7.30 | – | – | C[C@@H]1CN(c2nc(-n3ccc(OCC4C5(CC5)C45CC5)n3)ccc2C(=O)NS(=O)(=O)c2ccccc2)C(C)(C)C1 [Compound 64, N-(Benzenesulfonyl)-6-[3-(dispiro[2.0.2.1]heptan-7-ylmethoxy)pyrazol-1-yl]-2-[(4S)-2,2,4-trimethylpyrrolidin-1-yl]pyridine-3-carboxamide] |
| – | – | – | 7 % of rifampicin | > 7.00 | 7.52 | – | 7.52 | C[C@@H]1CN(c2nc(-n3ccc(OCCC4(C(F)(F)F)CC4)n3)ccc2C(=O)NS(=O)(=O)c2ccc(O)cc2)C(C)(C)C1 [Compound 31, N-(4-Hydroxyphenyl)sulfonyl-6-[3-[2-[1-(trifluoromethyl)cyclopropyl]ethoxy]pyrazol-1-yl]-2-[(4S)-2,2,4-trimethylpyrrolidin-1-yl]pyridine-3-carboxamide] |

More lines, now with the values behind:

| SMILES | bioavailability (Rat IV and PO PK studies; 3 mg/kg) [%] | clearance (Rat IV and PO PK studies) [mL/min/kg] | AUC (Rat IV and PO PK studies; 3 mg/kg) [ng·h/mL] | PXR Max Induction (% of rifampicin) (human PXR) | pEC50 (F508del-CFTR; [1]) | pEC50 (F508del-CFTR; [2]) | AUC (Rat IV and PO PK studies; 10 mg/kg for Compound A, read-out: Rat po AUC) [ng·h/mL] | pEC50 (F508del-CFTR; Table 7, Compound 1 and metabolites, read-out: CFTRdF508 EC50) |
| --- | --- | --- | --- | --- | --- | --- | --- | --- |
| COc1ccccc1S(=O)(=O)NC(=O)c1ccc(-n2ccc(OCC3(C(F)(F)F)CC3)n2)nc1N1C[C@@H](C)CC1(C)C [Comp. 53, N-(2-methoxyphenyl)sulfonyl-6-[3-[[l-(trifluoromethyl)cyclopropyl]methoxy]pyrazol-1-yl]-2-[(4S)-2,2,4-trimethylpyrrolidin-1-yl]pyridine-3-carboxamide] | 98 | 2.3 | 13700 | 39 % of rifampicin | > 7.00 | 7.40 | – | – |
| C[C@@H]1CN(c2nc(-n3ccc(OCC4(C(F)(F)F)CC4)n3)ccc2C(=O)NS(=O)(=O)c2ccc(O)cc2)C(C)(C)C1 [Compound 22, N-(4-Hydroxyphenyl)sulfonyl-6-[3-[[1-(trifluoromethyl)cyclopropyl]methoxy]pyrazol-1-yl]-2-[(4S)-2,2,4-trimethylpyrrolidin-1-yl]pyridine-3-carboxamide] | 31 | 6.7 | 3600 | 4 % of rifampicin | 6.00 to 7.00 | 6.92 | – | – |
| C[C@@H]1CN(c2nc(-n3ccc(OCC(C)(C)C)n3)ccc2C(=O)NS(=O)(=O)c2cccnc2N)C(C)(C)C1 [Comp. A, reference compound] | 28 | 17.8 | – | 2 % of rifampicin | – | – | 1200 | – |
| C[C@@H]1CN(c2nc(-n3ccc(OCCC4(C(F)(F)F)CC4)n3)ccc2C(=O)NS(=O)(=O)c2ccccc2Cl)C(C)(C)C1 [Comp. 43, N-(2-chlorophenyl) sulfonyl-6-[3-[2-[1-(trifluoromethyl)cyclopropyl]ethoxy]pyrazol-1-yl]-2-[(4S)-2,2,4-trimethylpyrrolidin-1-yl]pyridine-3-carboxamide] | – | – | – | 12 % of rifampicin | > 7.00 | 7.30 | – | – |
| C[C@@H]1CN(c2nc(-n3ccc(OCC4(C(F)(F)F)CC4)n3)ccc2C(=O)NS(=O)(=O)c2ccccc2)C(C)(C)C1 [Compound 14, N-(Benzenesulfonyl)-6-[3-[[1-(trifluoromethyl)cyclopropyl]methoxy]pyrazol-1-yl]-2-[(4S)-2,2,4-trimethylpyrrolidin-1-yl]pyridine-3-carboxamide] | 58 | 2 | 14700 | 19 % of rifampicin | > 7.00 | 7.40 | – | – |
| Cc1ccccc1S(=O)(=O)NC(=O)c1ccc(-n2ccc(OCC3C(C)(C)C3(C)C)n2)nc1N1C[C@@H](C)CC1(C)C [Compound 15, N-(o-Tolylsulfonyl)-6-[3-[(2,2,3,3-tetramethylcyclopropyl)methoxy]pyrazol-1-yl]-2-[(4S)-2,2,4-trimethylpyrrolidin-1-yl]pyridine-3-carboxamide] | – | – | – | 0 % of rifampicin | > 7.00 | 7.70 | – | – |
| C[C@@H]1CN(c2nc(-n3ccc(OCC4(C(F)F)CC4)n3)ccc2C(=O)NS(=O)(=O)c2ccccc2)C(C)(C)C1 [Comp. 55, N-(Benzenesulfonyl)-6-[3-[[1-(difluoromethyl)cyclopropyl]methoxy]pyrazol-1-yl]-2-[(4S)-2,2,4-trimethylpyrrolidin-1-yl]pyridine-3-carboxamide] | – | – | – | 22 % of rifampicin | > 7.00 | 7.30 | – | – |
| Cc1ccccc1S(=O)(=O)NC(=O)c1ccc(-n2ccc(OCCC3(C(F)(F)F)CC3)n2)nc1N1C[C@@H](C)CC1(C)C [Compound 4, N-(o-Tolylsulfonyl)-6-[3-[2-[1-(trifluoromethyl)cyclopropyl]ethoxy]pyrazol-1-yl]-2-[(4S)-2,2,4-trimethylpyrrolidin-1-yl]pyridine-3-carboxamide] | – | – | – | 4 % of rifampicin | > 7.00 | 7.70 | – | – |
| C[C@@H]1CN(c2nc(-n3ccc(OCC4(C(F)(F)F)CC4)n3)ccc2C(=O)NS(=O)(=O)c2ccccc2F)C(C)(C)C1 [Comp. 50, N-(2-fluorophenyl)sulfonyl-6-[3-[[1-(trifluoromethyl)cyclopropyl]methoxy]pyrazol-1-yl]-2-[(4S)-2,2,4-trimethylpyrrolidin-1-yl]pyridine-3-carboxamide] | – | – | – | 32 % of rifampicin | > 7.00 | 7.52 | – | – |
